Counter-ions that a name gives are not always drawn. Like-named read-outs stand apart in the source and are kept apart here.
Assays:
[1] = test system: human lymphoblastic leukemic cells (CCRF-CEM); test: XTT-tetrazolium cytotoxicity assay, CCRF-CEM; type: cell-based
Description: (§1) The effects of the compounds on cell growth were determined in all human tumor cells (i.e. T-cell acute lymphocytic leukemia CCRF-CEM), in a 72 h incubation, by XTT-tetrazolium assay, as described by Scudiero et al., Cancer Res. 1988, 48, 4827-4833. After the addition of phenazine methosulfate-XTT solution at 37° C. for 6 h, absorbance at 450 and 630 nm was detected on a microplate reader (EL 340; Bio-Tek Instruments Inc., Winooski, Vt.). Six to seven concentrations of each compound were used. The IC50 and dose-effect relationships of the compounds for antitumor activity were calculated by a median-effect plot (see, e.g., Chou et al. Adv. Enzyme Regul. 1984, 22, 27-55) using a computer program on an IBM-PC workstation (see, e.g., Chou et al. Dose-Effect Analysis with Microcomputers: Quantitation of ED50, LD50, Synergism, Antagonism, Low-Dose Risk, Receptor-Ligands Binding and Enzyme Kinetics; Biosoft: Cambridge, U.K., 1987).

Topo II = test: Topo II-mediated relaxation of pRYG-DNA; type: biochemical
HCT-116 = test: SRB cytotoxicity assay, solid tumor cells HCT-116; type: cell-based; conditions: Homo sapiens, HCT-116; SRB, 72 hours incubation; read-out: IC50 HCT-116
CCRF-CEM/VBL = test: XTT cytotoxicity assay, vinblastine-resistant subline; type: cell-based, human; conditions: for IC50: Homo sapiens, CCRF-CEM, XTT, 72 hours incubation, read-out: IC50 CCRF-CEM/VBL; for folds of resistance CCRF-CEM/VBL vs CCRF-CEM parent cells: number in bracket, ratio of IC50's
Description: as §1
(§2) Data summarizing the growth inhibition of human lymphoblastic leukemic cells (CCRF-CEM) and its drug-resistant sublines (resistant to vinblastine and taxol, CCRF-CEM/VBL and CCRF-CEM/taxol, respectively) by compound 37 is shown in Table 4.

CCRF-CEM/Taxol = test: XTT cytotoxicity assay, taxol-resistant subline; type: cell-based, human; conditions: for IC50: Homo sapiens, CCRF-CEM, XTT, 72 hours incubation, read-out: IC50 CCRF-CEM/Taxol; for folds of resistance CCRF-CEM/Taxol vs CCRF-CEM parent cells: number in bracket, ratio of IC50's
Description: as §1, §2

A549 = test: SRB cytotoxicity assay, solid tumor cells A549; type: cell-based, human; conditions: for IC50: Homo sapiens, A549, SRB
[2] = Table 2, Type 2 compounds, 72 h incubation, XTT
[3] = Table 1, Type 1 compounds, 72 h incubation, XTT
[4] = Homo sapiens, Table 4, XTT, 72 hours incubation, read-out: IC50 CCRF-CEM
[5] = 72 hours incubation, read-out: IC50 A549
[6] = incubation for 3 hours, washed, then incubated for a total of 72 hours (footnote b), read-out: IC50 A549 after washing

Nc1cc(CO)cc(Nc2c3ccccc3nc3c(OCCN(CCCl)CCCl)cccc23)c1 [Compound 50, [3-Amino-5-(4-{2-[bis(2-chloroethyl)amino]ethoxy}acridin-9-ylamino)phenyl]methanol]
IC50 [1, 2]: 0.0072 µM

AHMA-tert-butylcarbamate
Topo II-mediated relaxation of pRYG-DNA (Topo II): inhibited DNA relaxation

ClCCN(CCCl)CCCCOc1cccc(Nc2c3ccccc3nc3c(OCCN(CCCl)CCCl)cccc23)c1 [Compound 58]
IC50 ([1]; Table 3, Type 3 compounds, 72 h incubation, XTT, read-out: IC50): 0.025 µM

ClCCN(CCCl)Cc1cccc(Nc2c3ccccc3nc3ccccc23)c1 [Compound 46, Acridin-9-yl-(3-{[bis-(2-chloroethyl)amino]methyl}phenyl)amine]
IC50 [1, 3]: 0.0074 µM

Nc1cc(CO)cc(Nc2c3ccccc3nc3c(OCCCCN(CCCl)CCCl)cccc23)c1 [Compound 52, [3-Amino-5-(4-{4-[bis-(2-chloroethyl)amino]butoxy}acridin-9-ylamino)phenyl]-methanol]
IC50 [1, 2]: 0.0046 µM

ClCCN(CCCl)CCCCOc1ccc(Nc2c3ccccc3nc3ccccc23)cc1 [Compound 41, Acridin-9-yl-(4-{4-[bis(2-chloroethyl)amino]buoxy}phenyl)amine]
IC50 ([1]; Homo sapiens, 72 h): 0.061 µM

Cc1cccc2c(Nc3ccc(CN(CCCl)CCCl)cc3)c3cccc(C(=O)NCCN(C)C)c3nc12 [Compound 49, 9-(4-{[Bis(2-chloroethyl)amino]methyl}phenylamino)-5-methylacridin-4-carboxylic acid (2-dimethylaminoethyl)amide]
IC50 [1, 3]: 0.0081 µM

ClCCN(CCCl)CCOc1cccc(Nc2c3ccccc3nc3c(OCCN(CCCl)CCCl)cccc23)c1 [Compound 54, (4-{2-[Bis-(2-chloroethyl)amino]ethoxy}acridin-9-yl)-(3-{2-[bis(2-chloroethyl)-amino]ethoxy}phenyl)amine]
IC50 ([1]; Homo sapiens, 72 h): 0.0186 µM

ClCCN(CCCl)CCCCOc1cccc(Nc2c3ccccc3nc3ccccc23)c1 [Compound 39, Acridin-9-yl-(3-{4-[bis(2-chloroethyl)amino]butoxy}phenyl)amine]
IC50 ([1]; Homo sapiens, 72 h): 0.456 µM

OCc1cc(O)cc(Nc2c3ccccc3nc3c(OCCN(CCCl)CCCl)cccc23)c1 [Compound 53, 3-(4-{2-[Bis-(2-chloroethyl)amino]ethoxy}acridin-9-ylamino)-5-hydroxymethylphenol]
IC50 [1, 2]: 0.0061 µM

CC[C@]1(O)C[C@@H]2CN(CCc3c([nH]c4ccccc34)[C@@](C(=O)OC)(c3cc4c(cc3OC)N(C)[C@H]3[C@@](O)(C(=O)OC)[C@H](OC(C)=O)[C@]5(CC)C=CCN6CC[C@]43[C@@H]65)C2)C1 [Vinblastine]
IC50 [1, 4]: 0.0012 µM
IC50 (HCT-116): 0.0014 µM
IC50 (CCRF-CEM/VBL): 0.54 µM
folds of resistance CCRF-CEM/VBL vs CCRF-CEM parent cells (CCRF-CEM/VBL): 450 ×
IC50 (CCRF-CEM/Taxol): 0.029 µM
folds of resistance CCRF-CEM/Taxol vs CCRF-CEM parent cells (CCRF-CEM/Taxol): 24.2 ×
IC50 (A549; [5]): 0.0081 µM
IC50 (A549; [6]): 0.095 µM

ClCCN(CCCl)Cc1ccc(Nc2c3ccccc3nc3ccccc23)cc1 [Compound 47, Acridin-9-yl-(4-{[bis(2-chloroethyl)amino]methyl}phenyl)amine]
IC50 [1, 3]: 0.03 µM

Cc1cccc2c(Nc3ccc(OCCN(CCCl)CCCl)cc3)c3cccc(C(=O)NCCN(C)C)c3nc12 [Compound 44, 9-(4-{2-[Bis(2-chloroethyl)amino]ethoxy}phenylamino)-5-methylacridin-4-carboxylic acid (2-dimethylaminoethyl)amide]
IC50 [1, 3]: 0.773 µM

Cc1cccc2c(Nc3ccc(OCCN(CCCl)CCCl)cc3)c3cccc(C(=O)NCCN(C)C)c3nc12 (as salt: salt) [Compound 44, 9-(4-{2-[Bis(2-chloroethyl)amino]ethoxy}phenylamino)-5-methylacridin-4-carboxylic acid (2-dimethylaminoethyl)amide]
melting point: 185 to 186 °C

COc1cc([C@@H]2c3cc4c(cc3[C@@H](O[C@@H]3O[C@@H]5CO[C@@H](C)O[C@H]5[C@H](O)[C@H]3O)[C@H]3COC(=O)[C@H]23)OCO4)cc(OC)c1O [VP-16]
Topo II-mediated relaxation of pRYG-DNA (Topo II): inhibited DNA relaxation

ClCCN(CCCl)CCOc1ccc(Nc2c3ccccc3nc3ccccc23)cc1 [Compound 40, Acridin-9-yl-(4-{2-[bis(2-chloroethyl)amino]ethoxy}phenyl)amine]
IC50 ([1]; Homo sapiens, 72 h): 0.02 µM

Cc1cccc2c(Nc3cccc(OCCCCN(CCCl)CCCl)c3)c3cccc(C(=O)NCCN(C)C)c3nc12 [Compound 43, 9-(3-{4-[Bis(2-chloroethyl)amino]butoxy}phenylamino)-5-methylacridin-4-carboxylic acid (2-dimethylaminoethyl)amide]
IC50 [1, 3]: 0.0235 µM

Nc1cc(CO)cc(Nc2c3ccccc3nc3ccccc23)c1 [AHMA, 3-(9-acridinylamino)-5-hydroxymethylaniline]
IC50 ([1]; Homo sapiens, Table 1, Type 1 compounds, 72 h incubation, XTT, read-out: IC50): 0.753 µM
IC50 [1, 4]: 0.753 ± 0.378 µM
IC50 (CCRF-CEM/VBL): 1.6 µM
folds of resistance CCRF-CEM/VBL vs CCRF-CEM parent cells (CCRF-CEM/VBL): 2.1 ×
IC50 (CCRF-CEM/Taxol): 0.6 ± 0.074 µM
folds of resistance CCRF-CEM/Taxol vs CCRF-CEM parent cells (CCRF-CEM/Taxol): 0.8 ×
IC50 (A549; [5]): 0.047 µM
IC50 (A549; [6]): 0.55 µM
reduction of potency when drug washed away (A549; similar conditions, drug washed away): about 12 fold

Cc1cccc2c(Nc3cccc(CN(CCCl)CCCl)c3)c3cccc(C(=O)NCCN(C)C)c3nc12 [Compound 48, 9-(3-{[Bis(2-chloroethyl)amino]methyl}phenylamino)-5-methylacridine-4-carboxylic acid (2-dimethylaminoethyl)amide]
IC50 [1, 3]: 0.0017 µM

ClCCN(CCCl)CCOc1cccc(Nc2c3ccccc3nc3ccccc23)c1 [Compound 38, Acridin-9-yl-(3-{2-[bis(2-chloroethyl)amino]ethoxy}phenyl)amine]
IC50 ([1]; Homo sapiens, 72 h): 0.095 µM

Cc1cccc2c(Nc3ccc(OCCCCN(CCCl)CCCl)cc3)c3cccc(C(=O)NCCN(C)C)c3nc12 [Compound 45, 9-(4-{4-[Bis(2-chloroethyl)amino]butoxy}phenylamino)-5-methylacridin-4-carboxylic acid (2-dimethylaminoethyl)amide]
IC50 [1, 3]: 0.023 µM

ClCCN(CCCl)CCCCOc1cccc(Nc2c3ccccc3nc3c(OCCN(CCCl)CCCl)cccc23)c1 [Compound 55]
IC50 ([1]; Homo sapiens, 72 h): 0.006 µM

Cc1cccc2c(Nc3cccc(OCCN(CCCl)CCCl)c3)c3cccc(C(=O)NCCN(C)C)c3nc12 [Compound 42, 9-(3-{2-[Bis(2-chloroethyl)amino]ethoxy}phenylamino)-5-methylacridin-4-carboxylic acid (2-dimethylaminoethyl)amide]
IC50 [1, 3]: 0.003 µM

ClCCN(CCCl)CCOc1ccc(Nc2c3ccccc3nc3c(OCCN(CCCl)CCCl)cccc23)cc1 [Compound 56, (4-[2-[Bis(2-chloroethyl)amino]ethoxy]acridin-9-yl)-(4-{2-[bis(2-chloroethyl)amino]-ethoxy}phenyl)amine]
IC50 ([1]; Homo sapiens, 72 h): 0.0173 µM

CCOC(=O)Nc1cc(CO)cc(Nc2c3ccccc3nc3c(OCCN(CCCl)CCCl)cccc23)c1 [Compound 51]
IC50 [1, 2]: 0.026 µM

CC(=O)O[C@H]1C(=O)[C@@]2(C)[C@H]([C@H](OC(=O)c3ccccc3)[C@]3(O)C[C@H](OC(=O)[C@H](O)[C@@H](NC(=O)c4ccccc4)c4ccccc4)C(C)=C1C3(C)C)[C@]1(OC(C)=O)CO[C@@H]1C[C@@H]2O [Taxol]
IC50 [1, 4]: 0.0015 ± 0.0005 µM
IC50 (HCT-116): 0.0013 µM
IC50 (CCRF-CEM/VBL): 1.62 µM
folds of resistance CCRF-CEM/VBL vs CCRF-CEM parent cells (CCRF-CEM/VBL): 1080 ×
IC50 (CCRF-CEM/Taxol): 0.143 ± 0.007 µM
folds of resistance CCRF-CEM/Taxol vs CCRF-CEM parent cells (CCRF-CEM/Taxol): 95.3 ×
IC50 (A549; [5]): 0.0019 µM
IC50 (A549; [6]): 0.39 µM

— patent US20080176889A1, “9-anilinoacridine alkylating agents” (priority 2004, published 2008)
